The source made the active and inactive calls.
Assays:
[1] = target: Eukaryotic translation initiation factor 4E (Mus musculus, UniProt P63073); test: eIF4E–eIF4G protein interaction inhibitors, dose response, biochemical, TR-FRET (AID 855); assay type: functional;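 note: potency for disrupting eIF4E binding to eIF4GI seen as loss of FRET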
[2] = target: T1, Heat shock factor protein 1 (Mus musculus, UniProt P38532); test: inhibition of MG132-induced HSE-luciferase signal, confirmation, cell-based, NIH3T3, luminescence, dose retest (AID 2382); assay type: functional;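 note: NIH3T3 fibroblasts with HSF1-driven luciferase reporter stressed by proteasome inhibitor MG132; luminescence from HSF1-driven luciferase expression after 8 hours of MG132 stress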
T1 sequence (P38532 whole entry): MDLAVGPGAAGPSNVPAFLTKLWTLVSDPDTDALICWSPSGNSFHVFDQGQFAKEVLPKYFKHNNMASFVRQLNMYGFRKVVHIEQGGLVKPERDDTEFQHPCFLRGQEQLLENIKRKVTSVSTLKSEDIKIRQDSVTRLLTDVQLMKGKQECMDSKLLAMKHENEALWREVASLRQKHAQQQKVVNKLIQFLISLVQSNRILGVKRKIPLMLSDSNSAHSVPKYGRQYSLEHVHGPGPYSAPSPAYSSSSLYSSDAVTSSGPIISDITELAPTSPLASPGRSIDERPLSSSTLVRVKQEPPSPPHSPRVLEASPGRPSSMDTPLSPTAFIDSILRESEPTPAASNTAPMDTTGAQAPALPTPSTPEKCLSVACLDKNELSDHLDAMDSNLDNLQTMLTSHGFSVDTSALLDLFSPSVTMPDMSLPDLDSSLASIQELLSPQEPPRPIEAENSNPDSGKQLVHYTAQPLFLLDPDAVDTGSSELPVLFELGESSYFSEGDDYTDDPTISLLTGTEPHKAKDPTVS

Cytochrome P450 2C9 [3] = target: T2, Cytochrome P450 2C9 (Homo sapiens, UniProt P11712)
[4] = target: T3, High affinity choline transporter 1 (Homo sapiens, UniProt Q9GZV3); test: CHT inhibitors, dose response, cell-based, 5-point CRC, membrane potential dye (AID 504840); assay type: functional
T3 sequence (Q9GZV3 whole entry): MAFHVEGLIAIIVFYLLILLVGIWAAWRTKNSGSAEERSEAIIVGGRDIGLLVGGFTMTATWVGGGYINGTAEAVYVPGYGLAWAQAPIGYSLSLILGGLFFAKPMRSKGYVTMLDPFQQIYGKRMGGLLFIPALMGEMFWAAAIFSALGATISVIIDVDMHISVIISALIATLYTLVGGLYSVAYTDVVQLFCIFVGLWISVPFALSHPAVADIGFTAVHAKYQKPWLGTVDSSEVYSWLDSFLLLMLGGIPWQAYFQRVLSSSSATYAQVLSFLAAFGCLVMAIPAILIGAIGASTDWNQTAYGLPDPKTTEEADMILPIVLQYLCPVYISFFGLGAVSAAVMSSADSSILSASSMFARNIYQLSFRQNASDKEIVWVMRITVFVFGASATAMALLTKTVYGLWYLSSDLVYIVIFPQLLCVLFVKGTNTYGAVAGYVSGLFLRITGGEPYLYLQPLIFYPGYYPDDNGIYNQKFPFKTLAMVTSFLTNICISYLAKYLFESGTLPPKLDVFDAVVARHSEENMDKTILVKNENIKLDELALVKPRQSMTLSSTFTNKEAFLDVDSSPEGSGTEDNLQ

[5] = target: T4, Calpain-2 catalytic subunit (Sus scrofa, UniProt P43367); test: pig calpain II inhibitor potency, dose response, biochemical, fluorogenic peptide substrate (AID 1420); assay type: functional
T4 sequence (P43367 whole entry): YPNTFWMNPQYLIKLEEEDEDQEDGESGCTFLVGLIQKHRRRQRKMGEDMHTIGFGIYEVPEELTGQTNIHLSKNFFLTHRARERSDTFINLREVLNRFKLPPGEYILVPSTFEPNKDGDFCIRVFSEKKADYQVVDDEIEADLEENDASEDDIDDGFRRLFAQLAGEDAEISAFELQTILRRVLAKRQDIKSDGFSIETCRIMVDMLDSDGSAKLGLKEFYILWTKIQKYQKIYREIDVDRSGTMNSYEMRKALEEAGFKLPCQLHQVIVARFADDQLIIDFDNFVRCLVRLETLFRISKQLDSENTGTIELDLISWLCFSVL

Cytochrome P450 2C9 [6] = target: T2, Cytochrome P450 2C9; remark: listed apart in the source
Cytochrome P450 3A4 = Cytochrome P450 3A4 (Homo sapiens, UniProt P08684);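 note: CYP3A4 tested as one member of a cytochrome P450 panel screen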
[7] = tested on: Streptococcus sp. 'group A'; test: growth inhibition of control SK(-) GAS strain, dose response, counter-screen for streptokinase expression inhibitor project, luminescence, kanamycin, BacTiterGlo, confirmation (AID 1900); assay type: functional, organism-based
Streptokinase A = target: T5, Streptokinase A (Streptococcus pyogenes serotype M1, UniProt P10520); test: S. pyogenes streptokinase expression inhibitors, potency, dose response, plasminogen activation absorbance, OD405 (AID 1914); assay type: functional, Streptococcus pyogenes M1 GAS;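 note: secreted streptokinase activity via plasminogen activation per viability signal from cell pellet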
T5 sequence (P10520 whole entry): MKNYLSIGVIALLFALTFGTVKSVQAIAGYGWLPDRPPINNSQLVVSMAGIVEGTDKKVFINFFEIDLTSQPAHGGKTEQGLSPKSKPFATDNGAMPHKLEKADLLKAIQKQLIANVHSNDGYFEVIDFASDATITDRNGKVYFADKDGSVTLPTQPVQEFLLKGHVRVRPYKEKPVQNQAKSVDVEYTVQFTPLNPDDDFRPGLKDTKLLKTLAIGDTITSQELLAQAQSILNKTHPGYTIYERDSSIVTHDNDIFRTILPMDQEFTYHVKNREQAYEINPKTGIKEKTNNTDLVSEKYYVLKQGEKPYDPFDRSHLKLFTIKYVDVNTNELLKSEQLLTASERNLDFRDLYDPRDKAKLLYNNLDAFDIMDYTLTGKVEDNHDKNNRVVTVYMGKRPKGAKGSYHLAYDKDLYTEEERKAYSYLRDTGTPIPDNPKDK

Streptococcus = test: Group A Streptococcus viability loss, dose response, counter-screen for streptokinase expression inhibitor project, luminescence, BacTiterGlo (AID 1915); assay type: functional, organism-based;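 note: potency for reduction of bacterial viability or growth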
[8] = target: T6, Corticotropin-releasing factor receptor 2/Corticotropin-releasing factor-binding protein (Homo sapiens, UniProt P24387+Q13324); test: Dose Response confirmation of uHTS hits for small molecule antagonists of the CRF-binding protein and CRF-R2 receptor complex.; assay type: functional; conditions: read-out: IC50_Mean
T6 sequence (Q13324 whole entry): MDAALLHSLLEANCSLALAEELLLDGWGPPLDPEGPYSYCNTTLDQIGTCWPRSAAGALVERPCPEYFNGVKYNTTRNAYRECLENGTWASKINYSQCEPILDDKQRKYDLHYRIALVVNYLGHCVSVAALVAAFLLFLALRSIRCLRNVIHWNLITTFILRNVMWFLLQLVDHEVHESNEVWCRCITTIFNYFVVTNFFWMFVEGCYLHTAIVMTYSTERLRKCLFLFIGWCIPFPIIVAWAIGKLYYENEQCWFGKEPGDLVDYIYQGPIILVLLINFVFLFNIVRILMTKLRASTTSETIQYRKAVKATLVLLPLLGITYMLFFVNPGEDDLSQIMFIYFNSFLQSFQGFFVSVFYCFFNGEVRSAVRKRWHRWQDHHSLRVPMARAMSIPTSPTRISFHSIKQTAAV
T6 sequence (P24387 whole entry): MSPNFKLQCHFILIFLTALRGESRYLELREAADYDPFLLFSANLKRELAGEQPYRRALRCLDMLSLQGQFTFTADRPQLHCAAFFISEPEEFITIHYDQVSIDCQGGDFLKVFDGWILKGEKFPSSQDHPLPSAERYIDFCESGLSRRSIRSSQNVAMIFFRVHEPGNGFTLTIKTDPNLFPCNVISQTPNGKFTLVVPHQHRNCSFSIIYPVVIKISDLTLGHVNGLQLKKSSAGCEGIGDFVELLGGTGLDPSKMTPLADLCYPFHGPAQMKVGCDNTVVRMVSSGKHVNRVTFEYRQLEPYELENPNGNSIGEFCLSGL

[9] = target: T6, Corticotropin-releasing factor receptor 2/Corticotropin-releasing factor-binding protein; test: activators of CRF receptor 2 with binding protein – uHTS hits, confirmation (AID 602473); assay type: functional; conditions: read-out: EC50_Mean
Cytochrome P450 1A2 = target: T7, Cytochrome P450 1A2 (Homo sapiens, UniProt P05177);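 note: PubChem cytochrome P450 panel assay, CYP1A2 panel member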
T7 sequence (P05177 whole entry): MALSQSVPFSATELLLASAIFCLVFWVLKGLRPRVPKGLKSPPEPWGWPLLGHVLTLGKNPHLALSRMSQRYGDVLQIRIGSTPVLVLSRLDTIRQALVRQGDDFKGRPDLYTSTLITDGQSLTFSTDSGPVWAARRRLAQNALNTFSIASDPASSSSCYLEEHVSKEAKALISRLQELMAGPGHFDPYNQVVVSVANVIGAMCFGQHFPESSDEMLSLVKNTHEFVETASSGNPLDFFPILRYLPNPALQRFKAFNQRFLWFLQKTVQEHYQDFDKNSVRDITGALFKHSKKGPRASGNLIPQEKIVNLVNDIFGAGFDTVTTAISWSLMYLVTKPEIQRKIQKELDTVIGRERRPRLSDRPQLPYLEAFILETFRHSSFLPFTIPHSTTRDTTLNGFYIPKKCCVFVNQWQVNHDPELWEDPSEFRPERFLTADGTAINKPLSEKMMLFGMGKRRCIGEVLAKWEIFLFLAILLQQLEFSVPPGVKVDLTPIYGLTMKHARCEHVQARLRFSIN

[10] = target: Induced myeloid leukemia cell differentiation protein Mcl-1 (Homo sapiens, UniProt Q07820); assay type: functional
[11] = inhibitors of intracellular T. cruzi replication, confirmation, NIH3T3 host cells, beta-gal luminescence (AID 2044); assay type: functional, cell-based;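 note: intracellular parasites grown in NIH/3T3 mouse fibroblasts as host cells; luminescent beta-galactosidase reporter signal from transgenic T. cruzi replicating inside host cells; inhibitors lower the luminescence signal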
[12] = cytotoxicity toward NIH3T3 fibroblasts, dose response, counter-screen, cell-based, ATP luminescence, mouse fibroblasts (AID 2010); assay type: functional;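 note: cells exposed to compound for about 90 hours before reading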

Sequence of Induced myeloid leukemia cell differentiation protein Mcl-1 (Q07820 whole entry): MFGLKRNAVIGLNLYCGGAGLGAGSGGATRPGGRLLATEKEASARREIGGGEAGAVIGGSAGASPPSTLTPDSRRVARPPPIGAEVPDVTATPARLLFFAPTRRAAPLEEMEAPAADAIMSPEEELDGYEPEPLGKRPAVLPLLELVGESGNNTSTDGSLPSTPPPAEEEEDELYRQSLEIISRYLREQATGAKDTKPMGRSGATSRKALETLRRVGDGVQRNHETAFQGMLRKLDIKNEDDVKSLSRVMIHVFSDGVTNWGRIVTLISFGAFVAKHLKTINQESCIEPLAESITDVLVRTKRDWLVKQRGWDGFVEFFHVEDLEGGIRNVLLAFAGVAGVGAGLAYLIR
T2 sequence (P11712 whole entry): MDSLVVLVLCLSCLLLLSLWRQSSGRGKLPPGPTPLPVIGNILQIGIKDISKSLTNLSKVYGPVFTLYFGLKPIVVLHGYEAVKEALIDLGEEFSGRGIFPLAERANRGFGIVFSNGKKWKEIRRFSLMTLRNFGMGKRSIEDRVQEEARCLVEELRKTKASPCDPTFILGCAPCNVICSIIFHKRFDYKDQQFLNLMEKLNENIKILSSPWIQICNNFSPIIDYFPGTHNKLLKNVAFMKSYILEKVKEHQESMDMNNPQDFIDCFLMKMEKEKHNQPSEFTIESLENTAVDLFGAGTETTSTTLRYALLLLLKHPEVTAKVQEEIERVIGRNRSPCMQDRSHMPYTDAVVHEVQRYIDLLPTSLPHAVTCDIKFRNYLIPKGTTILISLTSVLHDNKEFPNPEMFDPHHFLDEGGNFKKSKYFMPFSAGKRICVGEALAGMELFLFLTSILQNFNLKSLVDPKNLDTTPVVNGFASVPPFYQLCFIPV
Sequence of Eukaryotic translation initiation factor 4E (P63073 whole entry): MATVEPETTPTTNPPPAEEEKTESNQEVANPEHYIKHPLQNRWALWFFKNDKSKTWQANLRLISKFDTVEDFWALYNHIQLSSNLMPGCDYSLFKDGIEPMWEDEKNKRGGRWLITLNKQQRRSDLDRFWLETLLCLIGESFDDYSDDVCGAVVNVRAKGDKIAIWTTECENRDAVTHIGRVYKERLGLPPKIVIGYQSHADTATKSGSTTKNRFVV
Sequence of Cytochrome P450 3A4 (P08684 whole entry): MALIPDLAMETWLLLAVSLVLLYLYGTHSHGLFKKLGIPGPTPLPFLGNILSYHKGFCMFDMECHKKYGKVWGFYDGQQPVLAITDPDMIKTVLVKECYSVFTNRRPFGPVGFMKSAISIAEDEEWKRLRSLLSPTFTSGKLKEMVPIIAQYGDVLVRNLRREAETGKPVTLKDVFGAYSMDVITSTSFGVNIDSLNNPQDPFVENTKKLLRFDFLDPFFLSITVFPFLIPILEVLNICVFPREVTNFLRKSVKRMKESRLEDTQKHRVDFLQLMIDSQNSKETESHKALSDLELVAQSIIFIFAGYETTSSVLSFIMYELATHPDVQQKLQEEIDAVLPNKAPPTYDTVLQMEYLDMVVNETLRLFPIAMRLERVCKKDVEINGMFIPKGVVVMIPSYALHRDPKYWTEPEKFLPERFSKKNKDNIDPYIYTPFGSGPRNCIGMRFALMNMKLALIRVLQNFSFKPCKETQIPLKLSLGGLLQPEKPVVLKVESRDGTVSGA

## O=C(CN1C(=O)S/C(=C\c2ccc(Cl)cc2)C1=O)NNC(=O)c1ccccc1O
[1]
  IC50: > 64 µM (inactive)

## CC(C)C(NC(=O)C12CC3CC(CC(C3)C1)C2)C(=O)NC1=NCCS1 (stereo not drawn)
[2]
  EC50: > 195 µM (not active)
[1]
  IC50: > 64 µM (inactive)
Cytochrome P450 2C9 [3]
  AC50: 25.1 µM (inconclusive)

## COc1ccccc1CCC(=O)OCC(=O)c1c(N)n(CC(C)C)c(=O)n(C)c1=O
[4]
  IC50: 14.8 µM (active)

## CCCC(=O)NCc1ccccc1Cl
[5]
  IC50: 36.3 µM (not active)

## COc1ccc([N+](=O)[O-])cc1NC(=O)CC(C)c1ccccc1 (stereo not drawn)
Cytochrome P450 2C9 [6]
  AC50: inconclusive

## Cc1ccc(C2=NNC(=O)C(c3c[nH]c4ccccc34)C2)cc1 (stereo not drawn)
[5]
  IC50: 46.4 µM (not active)

## COc1ccc(OC)c(Nc2ncnc3sc(-c4ccccc4)cc23)c1
[1]
  IC50: > 64 µM (inactive)

## FC(F)(F)c1cnc(/C=C/Nc2ccccc2Cl)c(Cl)c1
Cytochrome P450 3A4
  AC50: 31.6 µM (inconclusive)
Cytochrome P450 2C9 [6]
  AC50: inconclusive

## CC1CCCCC1NC(=O)CCn1ccc2cc(S(=O)(=O)N3CCCC3)ccc21 (stereo not drawn)
[7]
  EC50: > 150 µM (not active)
Streptokinase A
  EC50: > 150 µM (not active)
Streptococcus
  EC50: > 150 µM (not active)
[4]
  IC50: 17 µM (active)

## Cc1ccc(N(CC(=O)NC2CCCC2)C(=O)c2ccc(C)s2)cc1
[5]
  IC50: > 50 µM (not active)

## CC(C)CC(c1nnnn1C1CCCC1)N1CCC(C(N)=O)CC1 (stereo not drawn)
[5]
  IC50: > 50 µM (not active)

## O=C1CSC(c2ccccc2F)N1c1cc(Cl)ccc1O (stereo not drawn)
[8]
  IC50: > 47.1 µM (inactive)
[9]
  EC50: > 53 µM (inactive)
Cytochrome P450 1A2
  AC50: 39.8 µM (inconclusive)
Cytochrome P450 2C9 [6]
  AC50: inconclusive

## Cn1c(N)c(C(=O)COC(=O)C2CCCCC2)c(=O)n(C)c1=O
[5]
  IC50: 6.73 µM (active)

## COc1ccc2nc(NC(=O)Nc3cccc4ccccc34)sc2c1
[10]
  IC50: 5.86 µM (not active)

## COc1ccccc1CNc1cc(-c2ccccc2OC)ncn1
Cytochrome P450 2C9 [6]
  AC50: inconclusive

## Cc1cc(C(=O)OCC(=O)Nc2sc3c(c2C#N)CCC(C)C3)c2ccccc2n1 (stereo not drawn)
[10]
  IC50: 5.16 µM (active)

## O=C(C1CCN(S(=O)(=O)c2cccc3nsnc23)CC1)N1CCN(c2ccccc2F)CC1
Cytochrome P450 2C9 [6]
  AC50: inconclusive

## COc1ccccc1NC(=O)C1CCCN(c2ncnc3c2nc2n3CCCCC2)C1 (stereo not drawn)
[4]
  IC50: 15.1 µM (active)

## c1ccc(CCc2nn3c(Cc4ccccc4)nnc3s2)cc1
[4]
  IC50: 27.5 µM (active)

## CCc1ccc(Nc2c([N+](=O)[O-])nn(-c3ccc4c(c3)OCCO4)[n+]2[O-])cc1
[11]
  EC50: 0.447 µM (active)
[12]
  EC50: > 60 µM (not active)
[4]
  IC50: 12.6 µM (active)

## O=C(Cn1c(=O)n(-c2ccccc2)c(=O)c2sccc21)N1CCCC1
[10]
  IC50: 11.6 µM (not active)

## CC(C)CC(=O)Nc1nnc(SCC(=O)Nc2ccc(F)cc2)s1
[5]
  IC50: > 50 µM (not active)

## CCNc1nc(NC(C)C)nc(Oc2ccc(=O)n(C)n2)n1
[1]
  IC50: 50 µM (inactive)

## Nc1ccccc1-c1nnc(SCc2ccccc2F)nc1O
[1]
  IC50: > 64 µM (inactive)

## CCC(=O)Nc1ccc(C(=O)N2CCN(C(=O)c3ccco3)CC2)cc1
[5]
  IC50: 25.3 µM (not active)

## CCCn1c2ccccc2c2cnn(CC(=O)NCCCN3CCCCC3)c(=O)c21
[4]
  IC50: 12.6 µM (active)

## O=C(O)c1cc(N/N=C/c2ccc(N3CCOCC3)s2)ccc1Cl
[10]
  IC50: 3.84 µM (active)

Reference: ChEMBL document CHEMBL1201862, “PubChem BioAssay data set” (2004)
